In patent US20250281419A1, “LIPID AMINES” (ModernaTX, Inc., priority 2021, published 2025):

Tests used:
HeLa cells [1] = test: CFTR protein expression assay in HeLa cells (LNPs of Example 2, immunofluorescence); format: cell-based, Human; conditions: compared to buffer (PBS) control, 5 h transfection, 24 h incubation, N=4 wells
Description: Lipid nanoparticles were prepared using ethanol drop nanoprecipitation followed by solvent exchange into suitable aqueous buffer using dialysis. An exemplary lipid nanoparticle composition can be prepared by a process where lipids are dissolved in ethanol at a concentration of 12.5 mM and molar ratios of 33:15:11:39.5:1.5 (e.g., ionizable lipid:SA46:phospholipid:cholesterol:PL1). Lipid to mRNA is maintained at a N/P ratio of 4.9. Then mRNA is diluted with 25 mM sodium acetate (pH 5.0) and combined with the lipid mixture at a volume ratio of 3:1 (aqueous: ethanol). Resulting formulations are dialyzed against 20 mM tris/8% sucrose/70 mM sodium chloride (pH 7.4) at a volume of 300 times that of the primary product using Slide-A-Lyzer dialysis cassettes (Thermo Scientific, Rockford, IL, USA) with a molecular cutoff of 10 KDa for at least 18 h. The first dialysis is carried out at room temperature in a digital orbital shaker (VWR, Radnor, PA, USA) at 85 rpm for 3 h and then dialyzed overnight at 4° C. Formulations are concentrated using Amicon ultra-centrifugal filters (EMD Millipore, Billerica, MA, USA), passed through a 0.22-μm filter and stored at 4° C. until use. Lipid nanoparticle solutions are typically adjusted to specific mRNA concentrations between 0.1 and 1 mg/mL. LNPs were prepared according to Example 2. To evaluate LNP cellular uptake and protein expression in vitro, HeLa cells from ATCC.org (ATCC CCL-2) are used. The cells are cultured in complete Minimum Essential Medium (MEM) and are plated in 96 well Cell Carrier Ultra plate with PDL coated surface (PerkinElmer) prior to running an experiment. Buffer control (PBS) and LNPs encapsulating cystic fibrosis transmembrane conductance regulator (CFTR) mRNA were dosed with MEM media in the absence of serum (N=4 replicate wells). LNP transfected cells were incubated for 5 h, followed by media removal and supplementation with complete MEM media. Cells were further incubated in complete MEM media overnight (24 h). Following 24 hr incubation, the cells were fixed with PFA and processed for immunofluorescence (IF) using an anti-CFTR rabbit monoclonal antibody. Briefly, the cells were permeabilized with 0.5% TX-100 for 10 min, blocked with 3% bovine serum albumin (BSA)+PBST for 1 hr at room temperature, and incubated with primary anti-CFTR monoclonal antibody overnight at 4° C. Following primary antibody incubation, the cells were incubated with Alexa 488 conjugated secondary antibody for 30 min, and stained with DAPI and HCS CellMask Blue stain. Between different incubation steps the cells were either washed with PBS or PBST. Cells were imaged using Opera Phoenix spinning disk confocal microscope (PerkinElmer), and CFTR protein expression was detected using the 488 nm channel. The image analysis was performed in Harmony 4.9, with main analysis output being CFTR intensity per cell. The results shown in Table 3a show fold-change in CFTR signal intensity per cell compared to buffer (PBS) control (nanoparticle composition: IL1:Lipid Amine:DSPC:Chol:PL1). The results shown in Table 3b show fold-change in CFTR signal intensity per cell compared to buffer (PBS) control (nanoparticle composition: IL1:Lipid Amine:DPPC:Chol:PL1).

[2] = CFTR mRNA nanoparticle biophysical data (DLS, Ribogreen); format: physicochemical
Description: Lipids were dissolved in ethanol at a concentration of 24 mg/mL and molar ratios of 49.0:11.2:39.3:0.5 (IL1:DSPC:cholesterol:PEG-DMG-2K) and mixed with the acidification buffer (45 mM acetate buffer at pH 4). The lipid solution and acidification buffer were mixed using a multi-inlet vortex mixer at a 3:7 volumetric ratio of lipid:buffer for mixer 1 and mixer 2 and a 1:3 volumetric ratio of lipid:buffer (25% ethanol) for mixer 3. After a 5 second residence time, the resulting nanoparticles were mixed with 55 mM sodium acetate at pH 5.6 at a volumetric ratio of 5:7 of nanoparticle: buffer. See Table 4a for mixing parameters. The resulting dilute nanoparticles were then buffer exchanged and concentrated using tangential flow filtration (TFF) into a final buffer containing 5 mM sodium acetate pH 5.0. Then a 70% sucrose solution in 5 mM acetate buffer at pH 5 is subsequently added.
The resulting nanoparticles at a lipid concentration of 7.33 mg/mL in 5 mM acetate (pH 5) and 75 g/L sucrose were mixed with mRNA (luciferase or CFTR) at a concentration of 0.625 mg/mL in 42.5 mM sodium acetate pH 5.0, with N: P of 4.93. The nanoparticle solution and […] were mixed using a multi-inlet vortex mixer at a 3:2 volumetric ratio of nanoparticle:mRNA. Once loaded with mRNA, these intermediate nanoparticles underwent a 300 second residence time prior addition of neutralization buffer containing 120 mM TRIS pH 8.12 at a volumetric ratio of 5:1 of nanoparticle: buffer.
For HeLa studies evaluating CFTR protein expression, the intermediate nanoparticle formulation (1 mL, 0.415 mg mRNA) is mixed with a buffer containing 20 mM TRIS (pH 7.5), 0.9 mg/mL PEG-DMG-2K and lipid amine SA52 (647.1 nmol) at a volumetric ratio of 6:1 of nanoparticle: buffer. The resulting nanoparticle suspension underwent concentration using a centrifugal filtration device (100 kDa molecular weight cut-off) and was diluted in running buffer (20 mM TRIS, 14.3 mM sodium acetate, and 32 g/L sucrose, pH 7.5) with a 300 mM NaCl solution to a final buffer matrix containing 70 mM NaCl. […]

HeLa cells [3] = test: CFTR protein expression assay in HeLa cells (LNPs analogous to Example 4, lipid amine post-added); format: cell-based, Human; conditions: LNP prepared analogous to Example 4 with CFTR mRNA, vs buffer (PBS) control, 5 hr transfection, 24 hr incubation, N=4 wells
Description: Lipid nanoparticle compositions were prepared in a manner analogous to that in example 4. To evaluate LNP cellular uptake and protein expression In Vitro, HeLa cells from ATCC.org (ATCC CCL-2) was used. The cells were cultured in complete Minimum Essential Medium (MEM) and were plated in 96 well Cell Carrier Ultra plate with PDL coated surface (PerkinElmer) prior to running an experiment.
Buffer control (PBS) and LNPs encapsulating cystic fibrosis transmembrane conductance regulator (CFTR) mRNA were dosed with MEM media in the absence of serum (N=4 replicate wells). LNP transfected cells were incubated for 5 hr, followed by media removal and supplementation with complete MEM media. Cells were further incubated in complete MEM media overnight (24 hr).
Following 24 hr incubation, the cells were fixed with PFA and processed for immunofluorescence (IF) using an anti-CFTR rabbit monoclonal antibody. Briefly, the cells were permeabilized with 0.5% TX-100 for 10 min, blocked with 3% bovine serum albumin (BSA)+PBST for 1 hr at room temperature, and incubated with primary anti-CFTR monoclonal antibody overnight at 4° C. […] Cells were imaged using Opera Phoenix spinning disk confocal microscope (PerkinElmer), and CFTR protein expression was detected using the 488 nm channel. […]

SMILES: CC(C)CCC[C@@H](C)[C@H]1CC[C@H]2[C@@H]3CC=C4C[C@@H](OC(=O)CCC(=O)N5CCN(C)CCN(C)CC5)CC[C@]4(C)[C@H]3CC[C@]12C [SA52, (3S,8S,9S,10R,13R,14S,17R)-10,13-Dimethyl-17-((R)-6-methylheptan-2-yl)-2,3,4,7,8,9,10,11,12,13,14,15,16,17-tetradecahydro-1H-cyclopenta[a]phenanthren-3-yl 4-(4,7-dimethyl-1,4,7-triazonan-1-yl)-4-oxobutanoate]
- Average fold-change in CFTR signal intensity per cell ± standard deviation (HeLa cells [1]; LNP IL1:Lipid Amine:DPPC:Chol:PL1 with CFTR mRNA): 9.3 ± 1.2 fold-change
- Average fold-change in CFTR signal intensity per cell ± standard deviation (HeLa cells [1]; LNP IL1:Lipid Amine:DSPC:Chol:PL1 with CFTR mRNA): 2.3 ± 0.1 fold-change
- Diameter ([2]; CFTR mRNA nanoparticle with lipid amine (IL1:DSPC:cholesterol:PEG-DMG-2K core), DLS): 72.4 nm
- PDI ([2]; CFTR mRNA nanoparticle with lipid amine, DLS): 0.11
- % Encapsulation (Ribogreen) ([2]; CFTR mRNA nanoparticle with lipid amine, Ribogreen assay): 96.6%
- Average fold-change in CFTR signal intensity per cell compared to buffer control ± standard deviation (HeLa cells [3]): 3.4 ± 0.5 fold-change
